{"source": "patent US5354749A", "about": "“Sulfonylbenzyl-substituted benzo- and pyridopyridones” (Bayer Aktiengesellschaft, priority 1992, dated 1994)", "key": {"Angiotensin II receptor": {"target": "T1, Angiotensin II receptor (Bos taurus, UniProt P25104)", "T1 construct": "carried out on partially purified membrane fractions of bovine AC with radioactive angiotensin II; from tissue; host or cells: bovine adrenal cortex, partially purified membrane fractions", "T1 sequence (P25104 1-359)": "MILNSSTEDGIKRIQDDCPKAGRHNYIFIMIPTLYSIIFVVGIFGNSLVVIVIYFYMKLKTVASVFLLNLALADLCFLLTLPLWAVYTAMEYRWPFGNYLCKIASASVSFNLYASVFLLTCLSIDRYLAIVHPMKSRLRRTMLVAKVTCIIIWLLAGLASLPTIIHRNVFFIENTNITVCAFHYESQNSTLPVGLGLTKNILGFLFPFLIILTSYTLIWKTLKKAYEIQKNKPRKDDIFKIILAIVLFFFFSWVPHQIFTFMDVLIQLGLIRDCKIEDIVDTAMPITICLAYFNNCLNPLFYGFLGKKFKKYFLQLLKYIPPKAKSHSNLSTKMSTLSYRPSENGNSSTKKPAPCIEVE", "experiment": "Angiotensin II receptor binding on membrane fractions of the adrenal cortex (3H-angiotensin II)", "conditions": "bovine adrenal cortex membranes; 3H-angiotensin II 3-5 nM; 60 minutes, room temperature", "protocol": "Bovine adrenal cortices (AC) which are freshly removed and thoroughly freed from medulla of the capsule are comminuted in sucrose solution (0.32 M) with the aid of an Ultra-Turrax (Janke & Kunkel, Staufen i.B.) to give a coarse membrane homogenate, which is partially purified in two centrifugation steps to give membrane fractions. The investigations in receptor binding are carried out on partially purified membrane fractions of bovine AC with radioactive angiotensin II in an assay volume of 0.25 ml which contains, specifically, the partially purified membranes (50-80 μg), ^3 H-angiotensin II (3-5 nM), test buffer solution (50 mM Tris, pH 7.2) 5 mM MgCl2 and the substances to be investigated. After an incubation time of 60 minutes at room temperature, the non-bound radioactivity of the samples is separated off by means of moistened glass fibre filters (Whatman GF/C) and the bound radioactivity is measured […] in a scintillation cocktail, after the protein has been washed with ice-cold buffer solution (50 mM Tris/HCl, pH 7.4, 5% PEG 6000). The raw data were analysed with computer programs to give Ki and IC50 values (Ki : IC50 values corrected for the radioactivity used; IC50 values: concentration at which the substance to be investigated causes 50% inhibition of the specific binding of the radioligand)."}, "[1]": {"test_system": "angiotensin II-induced contraction of the isolated rabbit aorta", "experiment": "Inhibition of angiotensin II-induced contraction (vasoconstriction) on isolated aortic rings from rabbits in vitro", "conditions": "at 3rd = submaximum agonist concentration", "protocol": "Rabbits of both sexes are stunned by a blow to the neck and exsanguinated, or optionally anaesthetised with Nembutal (about 60-80 mg/kg i.v.) and sacrificed by opening the thorax. The thoracic aorta is removed, freed from adhering connective tissue and divided into ring segments 1.5 mm wide, and these are introduced individually, under an initial load of about 3.5 g, into 10 ml organ baths with carbogen-gassed Krebs-Henseleit nutrient solution thermostatically controlled at 37° C. and having the following composition: 119 mmol/l of NaCl; 2.5 mmol/l of CaCl2 ×2 H2 O; 1.2 mmol/l of KH2 PO4; 10 mmol/l of glucose; 4.8 mmol/l of KCl; 1.4 mmol/l of MgSO4 ×7 H2 O and 25 mmol/l of NaHCO3.\nThe contractions are recorded isometrically by Statham UC2 cells via a bridge amplifier (from Mulheim or DSM Aalen) and digitised and evaluated by means of an A/D converter (System 570, Keithley Munich). The agonist dose/effect curves (DEC) are plotted hourly. For each DEC, 3 or 4 individual concentrations are applied to the baths at intervals of 4 minutes. At the end of the DEC and the subsequent wash-out cycles (16 times for in each case about 5 seconds/minute with the abovementioned nutrient solution), a 28-minute rest or incubation phase follows, within which the contractions as a rule reach the starting value again. […]"}}}
{"smiles": "CCCCc1cc2ccccc2c(=O)n1Cc1ccc(S(=O)(=O)N2CCCC2C(=O)O)cc1Cl", "note": "(centres unmarked) [Example 2, N-4-[3-Butyl-1,2-dihydro-1-oxo-isoquinolin-2-yl-methyl]3-chlorophenylsulphonylproline]", "values": [{"measurement": "Ki", "setting": "Angiotensin II receptor", "result": 1.7, "unit": "µM"}, {"measurement": "IC50", "setting": "[1]", "result": 0.66, "unit": "µM"}]}
